Measurements as given in PMC10838953.

How the values were obtained:
MYLK4 = MYLK4 (Homo sapiens, UniProt Q86YV6); assay: biochemical; settings: read-out: %Ctrl @ 2000nM
MLK2 = MLK2 (Homo sapiens, UniProt Q02779); assay: biochemical; settings: read-out: %Ctrl @ 2000nM
VPS34 = VPS34 (Homo sapiens, UniProt Q8NEB9); assay: biochemical; settings: read-out: %Ctrl @ 2000nM
ERN1 = ERN1 (Homo sapiens, UniProt O75460); assay: biochemical; settings: read-out: %Ctrl @ 2000nM
FLT3(R834Q) = FLT3(R834Q) (Homo sapiens, UniProt P36888, R834Q); assay: biochemical; settings: read-out: %Ctrl @ 2000nM
EPHB1 = EPHB1 (Homo sapiens, UniProt P54762); assay: biochemical; settings: read-out: %Ctrl @ 2000nM
RIPK1 = RIPK1 (Homo sapiens, UniProt Q13546); assay: biochemical; settings: read-out: %Ctrl @ 2000nM
AKT (S129) = settings: 786-O cells; 48 h
[1] = target: RSK2(Kin.Dom.2-C-terminal) (Homo sapiens, UniProt P51812); assay: biochemical; settings: read-out: %Ctrl @ 2000nM
ROCK2 = ROCK2 (Homo sapiens, UniProt O75116); assay: biochemical; settings: read-out: %Ctrl @ 2000nM
YANK2 = YANK2 (Homo sapiens, UniProt Q9NY57); assay: biochemical; settings: read-out: %Ctrl @ 2000nM
YANK2, sequence (Q9NY57 whole entry): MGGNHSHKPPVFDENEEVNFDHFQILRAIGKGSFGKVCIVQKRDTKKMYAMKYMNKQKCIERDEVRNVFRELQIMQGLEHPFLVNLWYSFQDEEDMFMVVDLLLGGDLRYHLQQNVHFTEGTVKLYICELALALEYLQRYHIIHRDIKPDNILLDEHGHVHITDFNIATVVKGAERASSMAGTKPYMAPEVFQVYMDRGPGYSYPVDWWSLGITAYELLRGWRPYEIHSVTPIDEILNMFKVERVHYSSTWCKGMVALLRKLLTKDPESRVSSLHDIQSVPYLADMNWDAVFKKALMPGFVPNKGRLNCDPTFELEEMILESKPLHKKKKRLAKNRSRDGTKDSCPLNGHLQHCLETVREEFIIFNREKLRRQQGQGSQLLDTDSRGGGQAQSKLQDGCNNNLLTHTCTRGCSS

PCTK1 = PCTK1 (Homo sapiens, UniProt Q00536); assay: biochemical; settings: read-out: %Ctrl @ 2000nM
PCTK1, sequence (Q00536 whole entry): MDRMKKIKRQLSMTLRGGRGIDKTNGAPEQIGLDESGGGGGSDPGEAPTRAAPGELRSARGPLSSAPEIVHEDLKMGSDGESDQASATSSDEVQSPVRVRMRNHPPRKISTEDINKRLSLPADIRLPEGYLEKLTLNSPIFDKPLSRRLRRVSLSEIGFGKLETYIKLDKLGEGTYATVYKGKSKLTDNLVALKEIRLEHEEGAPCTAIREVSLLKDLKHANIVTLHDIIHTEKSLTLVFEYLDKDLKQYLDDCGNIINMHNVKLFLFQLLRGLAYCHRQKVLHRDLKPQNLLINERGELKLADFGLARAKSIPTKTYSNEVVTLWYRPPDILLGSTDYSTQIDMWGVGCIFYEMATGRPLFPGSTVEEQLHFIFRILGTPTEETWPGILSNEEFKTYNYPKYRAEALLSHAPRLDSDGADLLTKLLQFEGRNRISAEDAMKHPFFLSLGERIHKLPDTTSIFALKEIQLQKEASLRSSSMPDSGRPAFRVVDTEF

PLK2 = PLK2 (Homo sapiens, UniProt Q9NYY3); assay: biochemical; settings: read-out: %Ctrl @ 2000nM
FER = FER (Homo sapiens, UniProt P16591); assay: biochemical; settings: read-out: %Ctrl @ 2000nM
ACVR2A = ACVR2A (Homo sapiens, UniProt P27037); assay: biochemical; settings: read-out: %Ctrl @ 2000nM
CDC2L2 = CDC2L2 (Homo sapiens, UniProt Q9UQ88); assay: biochemical; settings: read-out: %Ctrl @ 2000nM
FLT3(K663Q) = FLT3(K663Q) (Homo sapiens, UniProt P36888, K663Q); assay: biochemical; settings: read-out: %Ctrl @ 2000nM
PIM1 = PIM1 (Homo sapiens, UniProt P11309); assay: biochemical; settings: read-out: %Ctrl @ 2000nM
NIK = NIK (Homo sapiens, UniProt Q99558); assay: biochemical; settings: read-out: %Ctrl @ 2000nM
TBK1 = TBK1 (Homo sapiens, UniProt Q9UHD2); assay: biochemical; settings: read-out: %Ctrl @ 2000nM
TSSK3 = TSSK3 (Homo sapiens, UniProt Q96PN8); assay: biochemical; settings: read-out: %Ctrl @ 2000nM
PKAC-beta = PKAC-beta (Homo sapiens, UniProt P22694); assay: biochemical; settings: read-out: %Ctrl @ 2000nM
KIT(V559D,V654A) = KIT(V559D,V654A) (Homo sapiens, UniProt P10721, V559D/V654A); assay: biochemical; settings: read-out: %Ctrl @ 2000nM
MRCKA = MRCKA (Homo sapiens, UniProt Q5VT25); assay: biochemical; settings: read-out: %Ctrl @ 2000nM
LATS2 = LATS2 (Homo sapiens, UniProt Q9NRM7); assay: biochemical; settings: read-out: %Ctrl @ 2000nM
MYLK = MYLK (Homo sapiens, UniProt Q15746); assay: biochemical; settings: read-out: %Ctrl @ 2000nM
IKK-alpha = IKK-alpha (Homo sapiens, UniProt O15111); assay: biochemical; settings: read-out: %Ctrl @ 2000nM
IKK-alpha, sequence (O15111 whole entry): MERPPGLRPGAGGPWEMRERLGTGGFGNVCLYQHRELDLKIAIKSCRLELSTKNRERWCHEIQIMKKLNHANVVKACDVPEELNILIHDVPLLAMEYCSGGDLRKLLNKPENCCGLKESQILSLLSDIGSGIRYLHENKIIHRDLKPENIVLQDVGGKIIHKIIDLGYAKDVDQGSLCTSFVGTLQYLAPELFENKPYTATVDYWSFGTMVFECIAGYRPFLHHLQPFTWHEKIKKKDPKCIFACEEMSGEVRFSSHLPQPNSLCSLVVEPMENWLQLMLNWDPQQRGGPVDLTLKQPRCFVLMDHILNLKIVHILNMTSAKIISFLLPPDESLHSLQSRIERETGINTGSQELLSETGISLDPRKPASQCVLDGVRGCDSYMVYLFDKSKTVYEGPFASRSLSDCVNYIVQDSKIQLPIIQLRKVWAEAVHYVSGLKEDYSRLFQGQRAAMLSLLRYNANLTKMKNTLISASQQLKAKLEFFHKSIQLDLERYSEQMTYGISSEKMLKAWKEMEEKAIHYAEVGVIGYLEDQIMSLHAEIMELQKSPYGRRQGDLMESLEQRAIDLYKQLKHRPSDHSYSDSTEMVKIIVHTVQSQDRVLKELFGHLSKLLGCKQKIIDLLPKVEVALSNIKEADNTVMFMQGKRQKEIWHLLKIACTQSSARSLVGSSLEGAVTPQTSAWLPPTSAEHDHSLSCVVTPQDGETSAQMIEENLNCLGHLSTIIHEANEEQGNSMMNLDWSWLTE

PLK3 = PLK3 (Homo sapiens, UniProt Q9H4B4); assay: biochemical; settings: read-out: %Ctrl @ 2000nM
AMPK-alpha1 = AMPK-alpha1 (Homo sapiens, UniProt Q13131); assay: biochemical; settings: read-out: %Ctrl @ 2000nM
AMPK-alpha1, sequence (Q13131 whole entry): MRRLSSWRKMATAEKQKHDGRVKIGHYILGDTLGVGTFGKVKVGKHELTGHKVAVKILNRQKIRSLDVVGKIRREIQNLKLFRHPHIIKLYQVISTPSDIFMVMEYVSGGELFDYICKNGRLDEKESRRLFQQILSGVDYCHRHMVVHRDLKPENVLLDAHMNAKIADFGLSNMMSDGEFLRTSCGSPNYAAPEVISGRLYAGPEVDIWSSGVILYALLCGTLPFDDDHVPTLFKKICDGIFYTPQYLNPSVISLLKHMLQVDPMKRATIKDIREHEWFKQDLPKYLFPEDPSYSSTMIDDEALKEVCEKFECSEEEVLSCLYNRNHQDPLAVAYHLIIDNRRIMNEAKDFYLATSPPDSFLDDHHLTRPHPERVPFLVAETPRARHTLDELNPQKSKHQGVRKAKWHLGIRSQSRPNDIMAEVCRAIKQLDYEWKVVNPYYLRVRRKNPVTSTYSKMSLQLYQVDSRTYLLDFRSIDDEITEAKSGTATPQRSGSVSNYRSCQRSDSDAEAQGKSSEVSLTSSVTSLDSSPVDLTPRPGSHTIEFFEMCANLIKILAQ

CDC2L1 = CDC2L1 (Homo sapiens, UniProt P21127); assay: biochemical; settings: read-out: %Ctrl @ 2000nM
RIOK3 = RIOK3 (Homo sapiens, UniProt O14730); assay: biochemical; settings: read-out: %Ctrl @ 2000nM
PCTK3 = PCTK3 (Homo sapiens, UniProt Q07002); assay: biochemical; settings: read-out: %Ctrl @ 2000nM
WNK1 = WNK1 (Homo sapiens, UniProt Q9H4A3); assay: biochemical; settings: read-out: %Ctrl @ 2000nM
p38-delta = p38-delta (Homo sapiens, UniProt O15264); assay: biochemical; settings: read-out: %Ctrl @ 2000nM
p38-delta, sequence (O15264 whole entry): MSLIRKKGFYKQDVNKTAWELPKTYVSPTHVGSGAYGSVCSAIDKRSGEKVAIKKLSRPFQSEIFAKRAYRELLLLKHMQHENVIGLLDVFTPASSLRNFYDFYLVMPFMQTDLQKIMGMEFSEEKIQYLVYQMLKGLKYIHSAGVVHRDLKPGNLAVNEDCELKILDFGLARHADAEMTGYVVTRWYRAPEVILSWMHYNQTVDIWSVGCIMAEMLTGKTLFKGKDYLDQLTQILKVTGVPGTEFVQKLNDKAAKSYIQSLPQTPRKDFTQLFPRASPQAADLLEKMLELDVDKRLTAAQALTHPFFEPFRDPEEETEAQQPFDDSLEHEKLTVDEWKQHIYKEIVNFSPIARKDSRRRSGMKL

SBK1 = SBK1 (Homo sapiens, UniProt Q52WX2); assay: biochemical; settings: read-out: %Ctrl @ 2000nM
SRPK2 = SRPK2 (Homo sapiens, UniProt P78362); assay: biochemical; settings: read-out: %Ctrl @ 2000nM
[2] = target: RPS6KA4(Kin.Dom.1-N-terminal) (Homo sapiens, UniProt O75676); assay: biochemical; settings: read-out: %Ctrl @ 2000nM
DRAK2 = DRAK2 (Homo sapiens, UniProt O94768); assay: biochemical; settings: read-out: %Ctrl @ 2000nM
p38 MAPK (T180/Y182) = settings: HEK293 cells; 48 h
HEK293 cells = settings: high concentrations
YANK1 = YANK1 (Homo sapiens, UniProt Q8WU08); assay: biochemical; settings: read-out: %Ctrl @ 2000nM
YANK1, sequence (Q8WU08 whole entry): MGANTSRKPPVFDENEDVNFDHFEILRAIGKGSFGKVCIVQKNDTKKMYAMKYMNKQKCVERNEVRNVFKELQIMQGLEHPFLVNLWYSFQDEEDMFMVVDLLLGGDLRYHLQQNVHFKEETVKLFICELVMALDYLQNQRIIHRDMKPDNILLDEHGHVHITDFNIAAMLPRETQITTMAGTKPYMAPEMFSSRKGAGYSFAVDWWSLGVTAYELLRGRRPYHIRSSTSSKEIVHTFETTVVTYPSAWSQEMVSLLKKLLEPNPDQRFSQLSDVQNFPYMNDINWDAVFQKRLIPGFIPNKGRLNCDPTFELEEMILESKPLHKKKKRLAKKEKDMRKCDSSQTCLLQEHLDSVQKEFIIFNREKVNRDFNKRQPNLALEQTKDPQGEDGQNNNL

ADCK4 = ADCK4 (Homo sapiens, UniProt Q96D53); assay: biochemical; settings: read-out: %Ctrl @ 2000nM
PIK3CA(M1043I) = PIK3CA(M1043I) (Homo sapiens, UniProt P42336, M1043I); assay: biochemical; settings: read-out: %Ctrl @ 2000nM

ERN1, sequence (O75460 19-977): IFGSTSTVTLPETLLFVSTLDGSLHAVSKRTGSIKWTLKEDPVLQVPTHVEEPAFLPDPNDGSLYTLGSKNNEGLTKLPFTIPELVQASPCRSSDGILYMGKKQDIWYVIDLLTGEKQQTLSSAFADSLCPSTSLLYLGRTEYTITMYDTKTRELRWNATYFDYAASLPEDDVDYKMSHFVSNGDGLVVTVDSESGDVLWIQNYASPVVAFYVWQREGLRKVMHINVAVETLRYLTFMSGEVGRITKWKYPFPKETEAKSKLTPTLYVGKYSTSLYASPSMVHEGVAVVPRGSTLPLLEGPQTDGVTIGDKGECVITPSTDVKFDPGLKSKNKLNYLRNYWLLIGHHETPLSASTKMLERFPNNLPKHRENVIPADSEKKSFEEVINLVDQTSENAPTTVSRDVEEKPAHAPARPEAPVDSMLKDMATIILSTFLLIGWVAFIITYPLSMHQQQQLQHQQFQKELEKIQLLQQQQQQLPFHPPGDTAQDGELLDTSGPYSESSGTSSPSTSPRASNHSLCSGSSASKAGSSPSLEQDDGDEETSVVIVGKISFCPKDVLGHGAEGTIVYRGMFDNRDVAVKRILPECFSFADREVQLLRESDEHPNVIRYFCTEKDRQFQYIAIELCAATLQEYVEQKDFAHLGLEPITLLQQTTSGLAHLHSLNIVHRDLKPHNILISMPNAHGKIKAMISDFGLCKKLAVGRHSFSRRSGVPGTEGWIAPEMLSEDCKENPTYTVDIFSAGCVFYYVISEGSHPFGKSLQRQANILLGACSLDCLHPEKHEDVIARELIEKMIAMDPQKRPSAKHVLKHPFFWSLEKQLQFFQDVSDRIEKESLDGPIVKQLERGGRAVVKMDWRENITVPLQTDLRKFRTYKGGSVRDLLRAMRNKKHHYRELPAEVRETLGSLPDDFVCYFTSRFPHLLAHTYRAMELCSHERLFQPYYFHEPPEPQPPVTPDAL
VPS34, sequence (Q8NEB9 whole entry): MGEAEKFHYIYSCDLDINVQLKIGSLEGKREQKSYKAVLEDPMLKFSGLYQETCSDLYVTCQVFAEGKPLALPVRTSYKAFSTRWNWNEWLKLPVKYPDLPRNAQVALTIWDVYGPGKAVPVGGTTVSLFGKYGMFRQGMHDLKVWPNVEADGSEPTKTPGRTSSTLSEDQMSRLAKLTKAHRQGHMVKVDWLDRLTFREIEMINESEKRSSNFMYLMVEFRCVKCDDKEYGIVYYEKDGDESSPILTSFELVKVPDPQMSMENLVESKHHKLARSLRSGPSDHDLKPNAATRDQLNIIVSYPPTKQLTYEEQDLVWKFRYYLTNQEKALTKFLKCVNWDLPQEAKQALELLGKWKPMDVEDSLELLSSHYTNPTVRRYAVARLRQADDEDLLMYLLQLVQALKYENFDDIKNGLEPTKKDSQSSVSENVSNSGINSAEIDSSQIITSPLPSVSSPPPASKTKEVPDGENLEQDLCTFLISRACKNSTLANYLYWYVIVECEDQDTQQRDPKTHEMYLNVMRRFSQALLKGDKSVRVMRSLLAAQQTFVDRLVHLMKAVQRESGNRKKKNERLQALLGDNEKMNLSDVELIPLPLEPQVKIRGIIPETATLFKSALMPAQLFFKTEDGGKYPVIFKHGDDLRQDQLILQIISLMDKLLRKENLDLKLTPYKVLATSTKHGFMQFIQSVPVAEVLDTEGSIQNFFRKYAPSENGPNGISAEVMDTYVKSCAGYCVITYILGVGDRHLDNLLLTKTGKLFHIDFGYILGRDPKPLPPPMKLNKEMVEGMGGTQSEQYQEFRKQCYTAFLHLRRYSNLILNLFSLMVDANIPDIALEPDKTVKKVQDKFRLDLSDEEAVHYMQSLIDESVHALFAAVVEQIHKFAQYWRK

`CC(C)COC(=O)c1[nH]c2ccc(F)cc2c1-c1cn(CC2CCN(CCNS(=O)(=O)c3ccc(CC(C)C)cc3)CC2)nn1` [AB668, isobutyl 5-fluoro-3-(1-((1-(2-((4-isobutylphenyl)sulfonamido)ethyl)piperidin-4-yl)methyl)-1H-1,2,3-triazol-4-yl)-1H-indole-2-carboxylate] gave a remaining activity at 2 µM (MYLK4) of 100%, a remaining activity at 2 µM (MLK2) of 73% and a remaining activity at 2 µM (VPS34) of 100%. For the same molecule, the remaining activity at 2 µM (ERN1) was 100%, the remaining activity at 2 µM (FLT3(R834Q)) was 77% and the remaining activity at 2 µM (EPHB1) was 100%. For the same molecule, the remaining activity at 2 µM (RIPK1) was 96%, the “phosphorylation of S129AKT” value (AKT (S129)) was “decreased, in a dose-dependent manner” and the remaining activity at 2 µM [1] was 81%. For the same molecule, the remaining activity at 2 µM (ROCK2) was 83%, the remaining activity at 2 µM (YANK2) was 76% and the remaining activity at 2 µM (PCTK1) was 94%. It also gave a remaining activity at 2 µM (PLK2) of 87%, a remaining activity at 2 µM (FER) of 100% and a remaining activity at 2 µM (ACVR2A) of 95%. For the same molecule, the remaining activity at 2 µM (CDC2L2) was 94%, the remaining activity at 2 µM (FLT3(K663Q)) was 96% and the remaining activity at 2 µM (PIM1) was 91%. It also gave a remaining activity at 2 µM (NIK) of 72%, a remaining activity at 2 µM (TBK1) of 87% and a remaining activity at 2 µM (TSSK3) of 98%. It also gave a remaining activity at 2 µM (PKAC-beta) of 78%, a remaining activity at 2 µM (KIT(V559D,V654A)) of 100% and a remaining activity at 2 µM (MRCKA) of 84%. For the same molecule, the remaining activity at 2 µM (LATS2) was 89%, the remaining activity at 2 µM (MYLK) was 81% and the remaining activity at 2 µM (IKK-alpha) was 100%. It also gave a remaining activity at 2 µM (PLK3) of 93%, a remaining activity at 2 µM (AMPK-alpha1) of 99% and a remaining activity at 2 µM (CDC2L1) of 90%. For the same molecule, the remaining activity at 2 µM (RIOK3) was 97%, the remaining activity at 2 µM (PCTK3) was 91% and the remaining activity at 2 µM (WNK1) was 100%. The remaining activity at 2 µM (p38-delta) was 96%, the remaining activity at 2 µM (SBK1) was 88% and the remaining activity at 2 µM (SRPK2) was 98%. For the same molecule, the remaining activity at 2 µM [2] was 88%, the remaining activity at 2 µM (DRAK2) was 100% and the p38 activation (p38 MAPK (T180/Y182)) was “activated in both cell types”. For the same molecule, the cytotoxicity (HEK293 cells) was “no cytotoxicity”, the remaining activity at 2 µM (YANK1) was 78% and the remaining activity at 2 µM (ADCK4) was 80%. The remaining activity at 2 µM (PIK3CA(M1043I)) was 100%.
